Laboratory results reported in patent publication US12391674B2, “Heterocyclic compounds for the treatment of epilepsy” (OTSUKA PHARMACEUTICAL CO., LTD., priority 2018, dated 2025).

Columns and labels:
ICR mice = assay: Rotarod test (motor coordination); format: in vivo, mouse; conditions: oral, rotarod 1 hour after administration
Protocol: This test is performed to evaluate the effect of the compound on the motor coordination. In this test example, the example compounds shown in Table 4 below were used as test compounds. Male ICR mice (Japan SLC, Inc., 5-6 weeks, 8 per group) were trained to remain on a fixed speed (15 rpm) rotating rod of rotarod apparatus (Muromachi Kikai Co., Ltd.) for 2 minutes. […] After 1 hour of oral administration, the mice were again placed on the rod accelerated from 4 rpm to 40 rpm over 5 minutes and the latency to fall off the rod was recorded for 200 seconds. The falling latency of the compound administration group was calculated as a relative value relative to the average value of the falling latency in the solvent administration group. Here, a coordination disorder of 25% or less was expressed as “A”, and a coordination disorder of more than 25% and 50% or less was expressed as “B”.

DBA/2 mice = assay: Audiogenic seizure model; format: in vivo; conditions: Mus musculus, DBA/2 mice, oral, auditory stimulation 1 hour after administration, read-out: Seizure suppression
In short: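 Male and female DBA/2 mice (3 weeks old, 8/group) dosed orally at 30 mg/kg in 5% gum arabic; 1 h later exposed to 12.6 kHz, 100-110 dB tone for 1 min or until tonic seizure. Maximum seizure score (0–4) recorded; suppression rate graded A (≥90%), B (70–<90%), C (50–<70%).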

Structure (SMILES)	Motor dysfunction (ICR mice; dose 5 mg/kg)	inhibition in vivo at 5 mg/kg (DBA/2 mice)	Motor dysfunction (ICR mice; dose 30 mg/kg)	inhibition in vivo at 30 mg/kg (DBA/2 mice)
c1ccc(Oc2ncc(-c3ccnc4ccccc34)cn2)cc1 [Example 118, 4-(2-Phenoxypyrimidin-5-Yl) Quinoline]	A (a coordination disorder of 25% or less)	70 to 90%		
c1ccc(Oc2ncc(-c3ccc4nccn4c3)cn2)cc1 [Example 119, 6-(2-Phenoxypyrimidin-5-Yl) Imidazo[1,2-a]Pyridine]	A (a coordination disorder of 25% or less)	> 90%		
Fc1ccc(Oc2ncc(-c3ccc4nccn4c3)cn2)cc1 [Example 120]	B (a coordination disorder of more than 25% and 50% or less)	> 90%		
Fc1ccccc1Oc1ncc(-c2ccc3nccn3c2)cn1 [Example 121]	A (a coordination disorder of 25% or less)	> 90%		
Fc1cccc(Oc2ncc(-c3ccc4nccn4c3)cn2)c1 [Example 122]	A (a coordination disorder of 25% or less)	> 90%		
c1ccc(Oc2ncc(-c3ccc4nccn4n3)cn2)cc1 [Example 123, 6-(2-Phenoxypyrimidin-5-Yl) Imidazo[1,2-b]Pyridazine]	A (a coordination disorder of 25% or less)	> 90%		
c1ccc(Oc2ncc(-c3ccn4ccnc4c3)cn2)cc1 [Example 127]	B (a coordination disorder of more than 25% and 50% or less)	> 90%		
c1ccc(Oc2ncc(-c3ccc4nncn4c3)cn2)cc1 [Example 129]	A (a coordination disorder of 25% or less)	> 90%		
c1ccc(Oc2ncc(-c3ccn4nccc4n3)cn2)cc1 [Example 134]	B (a coordination disorder of more than 25% and 50% or less)	> 90%		
c1ccc(Oc2ncc(-c3cnc4cc[nH]c4c3)cn2)cc1 [Example 137, 6-(2-Phenoxypyrimidin-5-Yl)-1H-Pyrrolo[3,2-b]Pyridine]			A (a coordination disorder of 25% or less)	> 90%
c1ccc(Oc2ncc(-c3ccc4ncnn4c3)cn2)cc1 [Example 141]	B (a coordination disorder of more than 25% and 50% or less)	> 90%		
c1ccc(Oc2ncc(-c3ccc4ncccc4n3)cn2)cc1 [Example 143]			A (a coordination disorder of 25% or less)	> 90%
c1ccc(Oc2ncc(-c3cn4ccnc4cn3)cn2)cc1 [Example 148]			A (a coordination disorder of 25% or less)	> 90%
c1ccc(Oc2ncc(-c3ccc4ccnn4c3)cn2)cc1 [Example 151]	A (a coordination disorder of 25% or less)	> 90%		
c1ccc(Oc2ncc(-c3ccc4cncn4c3)cn2)cc1 [Example 155]	A (a coordination disorder of 25% or less)	> 90%		
Cc1cccc(Oc2ncc(-c3ccc4nccn4c3)cn2)c1 [Example 161]	A (a coordination disorder of 25% or less)	> 90%		
COc1cccc(Oc2ncc(-c3ccc4nccn4c3)cn2)c1 [Example 162]	A (a coordination disorder of 25% or less)	> 90%		
Clc1cccc(Oc2ncc(-c3ccc4nccn4c3)cn2)c1 [Example 163, 6-(2-(3-Chlorophenoxy)Pyrimidin-5-Yl) Imidazo[1,2-a]Pyridine]	A (a coordination disorder of 25% or less)	> 90%		
FC(F)(F)c1cccc(Oc2ncc(-c3ccc4nccn4c3)cn2)c1 [Example 170]	A (a coordination disorder of 25% or less)	> 90%		
FC(F)(F)Oc1cccc(Oc2ncc(-c3ccc4nccn4c3)cn2)c1 [Example 171]	A (a coordination disorder of 25% or less)	> 90%		
